Source: patent US11160787B2, “4-(4-chlorophenyl)-5-methylene-pyrrol-2-one and 5-methylene-4-(p-tolyl)pyrrol-2-one for use in the treatment of gram negative bacterial infections” (priority 2016, dated 2021)
“Also recorded” adds a separate entry of the source.

Tests used:
[1] = tested on: P. aeruginosa PAO1 pqsA::lux; test: pqsA::lux promoter fusion expression in P. aeruginosa PAO1-L biosensor (AQ-dependent quorum sensing); format: cell-based, Pseudomonas aeruginosa; conditions: for extent of inhibition of light output / pqsA expression at high concentrations: PAO1-L pqsA::lux; for IC50: Pseudomonas aeruginosa, PAO1, read-out: IC50 for inhibition of pqsA::lux expression
Procedure: The expression of rhl and las AHL- and the pqsA AQ-synthase genes was evaluated using lux-based lasl (FIG. 1), rhll (FIG. 2) and pqsA (FIG. 3) chromosomally integrated promoter fusions. Luminescence was quantified as a function of bacterial growth. The applicant further determined that none of the lactams is growth inhibitory at 100 μM using a large number of strains (figure not shown).
To determine the relative inhibitory activities (IC50s) of 4-(4-chlorophenyl)-5-methylene-pyrrol-2-one (Ref. 488) and 5-methylene-4-(p-tolyl)pyrrol-2-one (Ref. 491), dose response curves were constructed using the same biosensor strain (P. aeruginosa PAO1 pqsA::lux; Fletcher et al, 2007; Ilangovan et al 2013). This strain produces light in response to the endogenous production of AQs such as PQS and HHQ.

PqsR [2] = molecular target: T1, PqsR (Pseudomonas aeruginosa, UniProt Q9I4X0); conditions: read-out: EC50 of PQS for pqsA::lux expression; PAO1-L ΔpqsA pqsA::lux, without lactam; cited from earlier work
T1 construct: By using the AQ-non producing P. aeruginosa strain PAO1-L ΔpqsA, pqsA::lux; endogenous in cells; host or cells: P. aeruginosa PAO1-L ΔpqsA, pqsA::lux

PqsABCD = test: HHQ production by PAO1-N ΔpqsAHR pBBR-pqsABCD, TLC with AQ biosensor overlay; format: cell-based, Pseudomonas aeruginosa; conditions: 488 200 μM, overnight in LB, FIG. 13
Source text: To determine whether 4-(4-chlorophenyl)-5-methylene-pyrrol-2-one (Ref. 488) is capable of inhibiting the enzymes (PqsABCD) involved in AQ biosynthesis, the P. aeruginosa PAO1-N ΔpqsAHR was exploited. This mutant cannot produce AQs because the genes coding for the key biosynthetic enzymes (PqsA and PqsH) and regulation (PqsR) have been deleted. To restore AQ production in a PqsR-independent manner in PAO1-N ΔpqsA, the pqsABCD genes were introduced on a plasmid (pBBR pqsABCD; Niewerth et al. 2011). P. aeruginosa PAO1-N ΔpqsAHR and P. aeruginosa PAO1-N ΔpqsAHR pBBR pqsABCD were both incubated overnight in LB with and without 4-(4-chlorophenyl)-5-methylene-pyrrol-2-one (Ref. 488) (200 μM), resuspended to an OD600 1.0. The cultures were extracted with acidified ethyl acetate, the organic phase removed, dried and resuspended in methanol subjected to thin layer chromatography (TLC).
After chromatography using a dichloromethane-methanol mobile phase, the TLC plates were overlaid with a thin agar layer containing the AQ biosensor strain PAO1-L ΔpqsA CTX::pqsA′-luxCDABE (Fletcher et al. 2007) incubated and examined for reporter output (FIG. 13). […] The biosensor strain produces light (FIG. 13 panel C) and pyocyanin (FIG. 13 panel B) in response to AQs that bind to PqsR and activate the pqsA promoter.

[3] = tested on: PAO1-N ΔpqsAHR pqsA'::lux; test: PqsR-independent expression of pqsA'::lux in PAO1-N ΔpqsAHR; format: cell-based, Pseudomonas aeruginosa; conditions: presence or absence of 40 μM PQS, FIG. 11
Source text: PQS is capable of weakly activating pqsA in the absence of PqsR via a mechanism that is not fully understood but appears to depend on the iron chelating properties of PQS. The aim of this experiment was to clarify whether lactam 4-(4-chlorophenyl)-5-methylene-pyrrol-2-one (Ref. 488) is also inhibitory for pqsA expression via the PqsR independent pathway. As previously described, the pqsA′::lux biosensor based on the triple mutant PAO1-N ΔpqsAHR cannot produce AQs and lacks pqsR but still responds to exogenous PQS. This response is however much weaker that the PqsR-dependent response.

[4] = tested on: P. aeruginosa strain PAO1-L; test: Pyocyanin production by PAO1-L, visually assessed; format: cell-based, Pseudomonas aeruginosa; conditions: 100 μM (vial 2), 8 h at 37° C., FIG. 5
Source text: Pyocyanin is a blue redox-active secondary metabolite and a putative signalling molecule in P. aeruginosa (Jayaseelan et al, 2014). The pyocyanin biosynthetic (phz) genes are regulated by QS and in part via the transcriptional regulator PqsR acting through PqsE (Rampioni et al 2011).
Although qualitative, this observation offers further confirmation of the inhibitory effects of lactam 4-(4-chlorophenyl)-5-methylene-pyrrol-2-one (Ref. 488) on AQ-dependent QS.

PqsR [5] = molecular target: T1, PqsR; test: PQS-dependent expression of pqsA::lux in AQ-non producing PAO1-L ΔpqsA (PqsR antagonism); format: cell-based
Procedure: By using the AQ-non producing P. aeruginosa strain PAO1-L ΔpqsA, pqsA::lux, the EC50 value for the native PqsR agonist, PQS was calculated as ˜2 μM (Ilangovan et al. 2013).
The experiment shown in FIG. 8 was then repeated using 4-(4-chlorophenyl)-5-methylene-pyrrol-2-one (Ref. 488) concentrations of 0, 50, 100 and 200 μM.
A partial agonist is a molecule that can bind to and activate a receptor resulting in a non-complete response compared with a full agonist. […] This contrasts with its activity as an antagonist in the presence of 10 or 40 μM PQS.

T1 sequence (Q9I4X0 whole entry): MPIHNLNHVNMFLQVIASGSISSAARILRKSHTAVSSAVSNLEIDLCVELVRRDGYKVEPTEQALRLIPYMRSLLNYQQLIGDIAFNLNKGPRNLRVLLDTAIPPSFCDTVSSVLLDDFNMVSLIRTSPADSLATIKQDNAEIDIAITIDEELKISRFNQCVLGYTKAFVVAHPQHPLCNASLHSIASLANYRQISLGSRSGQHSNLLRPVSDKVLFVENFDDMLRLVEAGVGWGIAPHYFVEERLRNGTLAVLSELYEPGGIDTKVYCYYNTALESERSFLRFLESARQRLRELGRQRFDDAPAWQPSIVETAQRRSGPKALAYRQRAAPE

Compound	extent of inhibition of light output / pqsA expression at high concentrations [1]	IC50 [1]	EC50 (PqsR [2])	effect on HHQ biosynthesis (PqsABCD)	effect on PqsR-independent expression of pqsA [3]	relative inhibition of PqsR-dependent pqsA::lux promoter fusion in screening ([1]; lactams at 100 μM, FIG. 3)	pyocyanin production in culture supernatant [4]	mode of antagonism of PQS-dependent pqsA::lux expression (PqsR [5]; 488 at 0, 50, 100 and 200 μM, FIG. 9)	restoration of light output by PQS in the presence of 488 (PqsR [5]; 488 at 50, 100, 200 μM, PAO1-L ΔpqsA, FIG. 9)	partial agonist activity (activation of pqsA expression) (PqsR [5]; PAO1-L ΔpqsA pqsA'::lux, concentrations up to 800 μM, FIG. 10)	fold increase of PQS EC50 caused by the lactam (PqsR [5]; fixed concentration of 488 (215 μM), range of PQS concentrations)
C=C1NC(=O)C=C1c1ccc(C)cc1 [Ref. 491, 5-methylene-4-(p-tolyl)pyrrol-2-one]	did not inhibit pqsA expression as strongly; also recorded: did not give complete knock out at higher concentration	44 µM									
CCCCCCCc1[nH]c2ccccc2c(=O)c1O [PQS, 2-heptyl-3-hydroxy-4-(1H)-quinolone]			~2 µM								
C=C1NC(=O)C=C1c1ccc(Cl)cc1 [Ref. 488, 4-(4-chlorophenyl)-5-methylene-pyrrol-2-one]	completely inhibited light output; also recorded: fully knock out the PQS	22 µM		did not inhibit HHQ biosynthesis	small inhibitory effect	most potent inhibitor	absence of green pigmentation	competitive antagonist	fully restoring light output in the presence of 50 μM but not 100 μM or 200 μM	no partial agonist activity	~15 fold
